{"source": "paper PMC7403980", "about": "“Anti-Inflammatory Effects of the Novel PIM Kinase Inhibitor KMU-470 in RAW 264.7 Cells through the TLR4-NF-κB-NLRP3 Pathway” (International Journal of Molecular Sciences, 2020)", "type_in_all_cases": "cell-based, murine", "key": {"NLRP3": {"test_system": "NLRP3", "assay": "LPS-induced NLRP3 protein expression in RAW 264.7 cells (Western blot)", "conditions": "KMU-470 0.1, 0.5, 1 μM 30 min, LPS 50 ng/mL 6 h", "method": "(§1) Figure 6 Inhibitory effect of KMU-470 on LPS-induced up-regulation of pro-inflammatory cytokines and activation of NLRP3 inflammasome in RAW 264.7 cells. (A–C) Cells were treated with KMU-470 for 30 min and stimulated with LPS 50 ng/mL for 6 h. The levels of IL-1β, TNF-α, and IL-6 were determined using real time PCR. *** p < 0.001, *p < 0.05. (D) Cells were pre-treated with 0.1, 0.5, and 1 μM of KMU-470 for 30 min and treated with LPS 50 ng/mL for 6 h, respectively. Whole cell lysates were isolated and used to measure the protein expression levels of pro-IL-1β and β-actin by Western blot analysis. (E) Cells were pre-treated with 0.1, 0.5, and 1 μM of KMU-470 for 30 min and treated with LPS 50 ng/mL for 6 h, respectively. Whole cell lysates were isolated and used to measure the protein expression levels of […], ASC, pro-caspase-1, pro-IL-1β, and β-actin by Western blot analysis.\n(§2) RAW 264.7 cells were pre-treated with KMU-470 (0.5–1 μM/mL) for 24 h and stimulated with LPS (50 ng/mL) for 6 h. […] Immunoreactive proteins were detected using the ELC Western blot detection system kit (Millipore). Signal intensity was measured using the Chemi Image documentation system (Fusion Fx7, VILBER LOUTMAT). Protein expression levels were quantified using the Image J program."}, "IL-6": {"test_system": "IL-6", "assay": "LPS-induced IL-6 mRNA in RAW 264.7 cells (real time PCR)", "conditions": "KMU-470 30 min, LPS 50 ng/mL 6 h", "method": "as §1\nTotal RNA was isolated using TriZol reagent (Life Technologies; Gaithersburg, MD, USA) according to the manufacturer’s protocol. Total RNA absorbance was quantified by using Nanodrop 1000 (Thermo Fisher Scientific, Waltham, MA, USA). […] Real time quantitative PCR was performed by using the SYBR green premix (Roche Diagnostics, Mannheim, Germany) on the LightCycler 480 PCR (system Roche Diagnostics, Mannheim, Germany). […]"}, "p38": {"test_system": "p38", "assay": "LPS-induced phosphorylation of p38 in RAW 264.7 cells (Western blot)", "conditions": "KMU-470 1 μM 24 h pre-treatment, LPS 50 ng/mL", "method": "(§3) Figure 5 Effect of KMU-470 on LPS-induced phosphorylation of MAPKs/ IKKs/ NF-κB in RAW 264.7 cells. (A) Cells were pre-treated with 1μM of KMU-470 for 24 h and stimulated with LPS (50 ng/mL) at the indicated times. (C) Cells were pre-treated with 0.5 and 1μM of KMU-470 for 30 min prior to LPS treatment. Total proteins were isolated after 6 h exposure to LPS (50 ng/mL). The protein expression level of MAPKs, p-IKKα/β, and p-NF-κB were assessed using Western blot analyses. (B,D) The relative optical densities of MAPKs, p-IKKα/β, and p-NF-κB bands were analyzed by the Image-J program. *** p < 0.001.\n(§4) RAW 264.7 cells were pre-treated with KMU-470 (0.5–1 μM/mL) for 24 h and stimulated with LPS (50 ng/mL) for 6 h. After stimulation, total cells were harvested, washed with PBS buffer, and then the total protein was extracted with a RIPA buffer (0.1 mM sodium orthovanadate, 137 mM NaCl, 15 mM EGTA, 0.1% Triton X-100, 25 mM MOPS, 15 mM MgCl2, 100 μM phenylmethylsulfonyl fluoride, and 20 μM leupeptin, adjusted to pH 7.2). […] Immunoreactive proteins were detected using the ELC Western blot detection system kit (Millipore). Signal intensity was measured using the Chemi Image documentation system (Fusion Fx7, VILBER LOUTMAT). Protein expression levels were quantified using the Image J program."}, "pro-IL-1β": {"test_system": "pro-IL-1β", "assay": "LPS-induced pro-IL-1β protein expression in RAW 264.7 cells (Western blot)", "conditions": "KMU-470 0.1, 0.5, 1 μM 30 min, LPS 50 ng/mL 6 h", "method": "Figure 2 Effect of PIM inhibition on lipopolysaccharide (LPS)-mediated inflammatory response in RAW 264.7 cells. (A) RAW 264.7 cells transfected with negative siRNA or PIM-1 siRNA for 72 h and then treated with LPS (50 ng/mL) for 6 h. Whole cell lysates were isolated and used to measure the protein expression levels of PIM-1, pro-IL-1β, p-Bad, and β-actin by Western blot analysis. […] Total RNA was isolated, and used to measure the mRNA expression levels of IL-1b and β-actin by RT-PCR analysis. *** p < 0.001, ** p < 0.01.\nFigure 6 Inhibitory effect of KMU-470 on LPS-induced up-regulation of pro-inflammatory cytokines and activation of NLRP3 inflammasome in RAW 264.7 cells. (A–C) Cells were treated with KMU-470 for 30 min and stimulated with LPS 50 ng/mL for 6 h. The levels of IL-1β, TNF-α, and IL-6 were determined using real time PCR. *** p < 0.001, *p < 0.05. (D) Cells were pre-treated with 0.1, 0.5, and 1 μM of KMU-470 for 30 min and treated with LPS 50 ng/mL for 6 h, respectively. […]\nas §2, with “program. […]” for “program.”"}, "IKKα/β": {"test_system": "IKKα/β", "assay": "LPS-induced phosphorylation of IKKα/β in RAW 264.7 cells (Western blot)", "conditions": "KMU-470 0.5 and 1 μM 30 min, LPS 50 ng/mL 6 h", "method": "as §3, §4"}, "JNK": {"test_system": "JNK", "assay": "LPS-induced phosphorylation of JNK in RAW 264.7 cells (Western blot)", "conditions": "KMU-470 1 μM 24 h pre-treatment, LPS 50 ng/mL", "method": "as §3, §4"}, "IL-1β mRNA": {"test_system": "IL-1β mRNA", "assay": "LPS-induced IL-1β mRNA expression in RAW 264.7 cells (RT-PCR)", "conditions": "LPS 50 ng/mL 6 h", "description": "Total RNA was isolated, and used to measure the mRNA expression levels of IL-1b and β-actin by RT-PCR analysis. *** p < 0.001, ** p < 0.01. […] (A-C) Cells were treated with KMU-470 for 30 min and stimulated with LPS 50 ng/mL for 6 h. The levels of IL-1β, TNF-α, and IL-6 were determined using real time PCR. *** p < 0.001, *p < 0.05. (D) Cells were pre-treated with 0.1, 0.5, and 1 μM of KMU-470 for 30 min and treated with LPS 50 ng/mL for 6 h, respectively. […] (E) Cells were pre-treated with 0.1, 0.5, and 1 μM of KMU-470 for 30 min and treated with LPS 50 ng/mL for 6 h, respectively. […] Total RNA was isolated using TriZol reagent (Life Technologies; Gaithersburg, MD, USA) according to the manufacturer's protocol. Total RNA absorbance was quantified by using Nanodrop 1000 (Thermo Fisher Scientific, Waltham, MA, USA). […] Real time quantitative PCR was performed by using the SYBR green premix (Roche Diagnostics, Mannheim, Germany) on the LightCycler 480 PCR (system Roche Diagnostics, Mannheim, Germany). The following primer sequences were used: L32 (Housekeeping gene): forward [NT], reverse [NT]-1β; forward [NT], reverse [NT]-α; forward [NT], reverse [NT]-6; forward [NT], reverse [NT]."}, "ERK": {"test_system": "ERK", "assay": "LPS-induced phosphorylation of ERK in RAW 264.7 cells (Western blot)", "conditions": "KMU-470 1 μM 24 h pre-treatment, LPS 50 ng/mL", "method": "as §3, §4"}}}
{"smiles": "CN(C)CCNc1cncc(-c2ccc3c(c2)/C(=C/c2cnc[nH]2)C(=O)N3)n1", "note": "[KMU-470, (Z)-3-((1H-Imidazol-5-yl)methylene)-5-(6-((2-(dimethylamino)ethyl)amino)pyrazin-2-yl)indolin-2-one]", "values": [{"measurement": "Expression of NLRP3 protein compared with LPS alone group", "setting": "NLRP3", "result": "marked decrease"}, {"measurement": "LPS-induced up-regulation of IL-6 (mRNA)", "setting": "IL-6", "result": "significantly decreased"}, {"measurement": "p38 phosphorylation level", "setting": "p38", "result": "no change"}, {"measurement": "LPS-induced up-regulation of IL-1β protein", "setting": "pro-IL-1β; RAW 264.7 cells (Figure 6D)", "result": "reduced"}, {"measurement": "Expression of pro-IL-1β protein compared with LPS alone group", "setting": "pro-IL-1β; RAW 264.7 cells (Figure 6E)", "result": "marked decrease"}, {"measurement": "LPS-induced phosphorylation of IKKα/β", "setting": "IKKα/β", "result": "significantly reduced"}, {"measurement": "LPS-induced phosphorylation of JNK", "setting": "JNK", "result": "significantly inhibited"}, {"measurement": "LPS-induced up-regulation of IL-1β mRNA expression", "setting": "IL-1β mRNA; 1 µM compound, pre-treatment 1 h, RT-PCR (Figure 2B)", "result": "significantly inhibited"}, {"measurement": "LPS-induced up-regulation of IL-1β (mRNA)", "setting": "IL-1β mRNA; KMU-470 30 min, real time PCR (Figure 6A)", "result": "significantly decreased"}, {"measurement": "LPS-induced phosphorylation of ERK", "setting": "ERK", "result": "significantly inhibited"}]}
